Among the data in patent US9617272B2, “Tricyclic compounds as inhibitors of immunosuppression mediated by tryptophan metabolization” (NewLink Genetics Corporation, priority 2013, dated 2017) are IC50 values, retold here.

Experiment [1] deals with purified human TDO protein (Homo sapiens (Human), UniProt P48775). In words: Enzymatic TDO assay. The format is biochemical. The procedure:
Differently from the IDO activity assay, no methylene blue is added to the assay. The inhibitors were initially diluted in DMSO at 100 mM and were diluted in potassium phosphate 50 mM, added to the reaction mixture at final concentrations raging from 300 μM to 5 nM and preincubated with the enzyme for 5 min at 25° C. The reaction was started by addition of L-tryptophan to 200 μM and incubated 15 min at 37° C. The reaction was stopped by addition of 0.5 vol of 30% trichloroacetic acid and incubated 30 min at 60° C. to hydrolyze N-formylkynurenine to kynurenine. The reaction was centrifuged at 3400 g for 5 min to remove precipitated protein and the supernatant was reacted with 2% (w/v) of p-dimethylaminobenzaldehyde in acetic acid. The reaction was incubated 10 min at 25° C. and read at 480 nm in a spectrophotometer. Control samples with no TDO inhibitor, or with no TDO enzyme were used as controls to set the parameters for the non-linear regressions necessary for determination of the IC50 for each compound. Nonlinear regressions and determination of the IC50 values were performed using the GraphPad Prism 4 software.

The target in experiment [2] is purified human IDO protein (Homo sapiens (Human), UniProt P14902). In words: Enzymatic IDO assay. The format is biochemical. The procedure:
Expression vectors for human indoleamine-2,3-dioxygenase (IDO) protein were prepared by amplification of a 1219 bp fragment of the sequence present in vector phIDO6His cDNA with primers 5′-ggagcatgcta[…]-3′ (SEQ ID NO: 1) and 5′gagagatct[…]-3′ (SEQ ID NO: 2) and cloning the SphI-BglII 1213 bp fragment into pQE70 (Qiagen), to yield vector pQE70-hIDO. This construct adds 2 extra amino acids and a 6-Histidine tag to the C-terminus of the natural human IDO protein while preserving intact the natural start codon and N-terminus amino acid sequence.
Plasmid pQE70-hIDO was transformed into M15(pREP4) cells (Qiagen) and clones were selected in LB-agar plates supplemented with carbenicillin 50 μg/mL and kanamycin 30 μg/mL. Protein expression was carried out by growing an overnight culture of the M15pREP4/pQE70-hIDO clone in 100 mL LB supplemented with 100 μg/mL carbenicillin, 50 μg/mL kanamycin and 50 μg/mL of L-tryptophan (LBCKT medium). 40 mL of this culture were inoculated into 750 mL of LBCKT for 4 hours at 37° C. This culture was diluted 1:10 into LBCKT medium and cultured for another 2 hours at 37° C. until OD600 was higher than 0.8. At this point the cultures were inoculated with Hemin to 7 μM and L-Tryptophan to 75 μg/mL and incubated at 37° C. for 2 h. Induction of protein expression was carried out by supplementing the cultures with IPTG to 1 mM, PMSF to 200 μM, EDTA to 1 mM and L-tryptophan to 50 μg/mL. Incubation was continued for additional 16 h at 25° C. Cells were collected by centrifugation, and the cell pellets were washed with PBS buffer supplemented with 200 μM PMSF and 1 mM EDTA and stored at −80° C. until protein purification.
The equivalent of 16 L of culture were processed in one batch of purification. Cell pellets were thawed, resuspended in 50 mM potassium phosphate buffer pH 7.0, 200 μM PMSF, 1 mM EDTA, 1 mg/mL lysozyme to 10 mL per liter of bacterial culture and incubated 30 minutes on ice. Cells were then lysed by sonication. Cell lysates were centrifuged 20 min at 20000 g and the supernatant was filtered through 0.45 μm filters. The filtered supernatant was loaded onto a 60 mL phosphocellulose column equilibrated with 50 mM potassium phosphate buffer pH 6.5 (KPB) at 1-3 mL/min. The column was washed with 3 volumes of 50 mM KPB, 3 volumes of 100 mM KPB and the protein was eluted with 15 volumes of a linear gradient of 100-500 mM KPB. Fractions were collected and IDO activity assay was performed by measuring kynurenine production. This was carried out by mixing 50 μL of each fraction with 100 μL of reaction mix to yield a final concentration of 50 mM KPB buffer, 20 mM ascorbic acid, 200 μg/mL catalase, 20 μM methylene blue and 400 μM L-tryptophan. […] Collected fractions were assayed by IDO enzymatic assay described above and the positive fractions were pooled and concentrated by ultrafiltration and dialyzed against a buffer containing 250 mM KPB, 50% glycerol.
The inhibitors were initially diluted in DMSO at 100 mM and were diluted in potassium phosphate 50 mM, added to the reaction mixture at final concentrations raging from 1 mM to 5 nM and preincubated with the enzyme for 5 min at 25° C. The reaction was started by addition of L-tryptophan to 200 μM and incubated 15 min at 37° C. The reaction was stopped by addition of 0.5 vol of 30% trichloroacetic acid and incubated 30 min at 60° C. to hydrolyze N-formylkynurenine to kynurenine. The reaction was centrifuged at 3400 g for 5 min to remove precipitated protein and the supernatant was reacted with 2% (w/v) of p-dimethylaminobenzaldehyde in acetic acid. The reaction was incubated 10 min at 25° C. and read at 480 nm in a spectrophotometer.

By IC50 is commonly meant the point on the concentration scale where inhibition reaches its midpoint. A low value points to higher potency.

purified human TDO protein, sequence (P48775 whole entry): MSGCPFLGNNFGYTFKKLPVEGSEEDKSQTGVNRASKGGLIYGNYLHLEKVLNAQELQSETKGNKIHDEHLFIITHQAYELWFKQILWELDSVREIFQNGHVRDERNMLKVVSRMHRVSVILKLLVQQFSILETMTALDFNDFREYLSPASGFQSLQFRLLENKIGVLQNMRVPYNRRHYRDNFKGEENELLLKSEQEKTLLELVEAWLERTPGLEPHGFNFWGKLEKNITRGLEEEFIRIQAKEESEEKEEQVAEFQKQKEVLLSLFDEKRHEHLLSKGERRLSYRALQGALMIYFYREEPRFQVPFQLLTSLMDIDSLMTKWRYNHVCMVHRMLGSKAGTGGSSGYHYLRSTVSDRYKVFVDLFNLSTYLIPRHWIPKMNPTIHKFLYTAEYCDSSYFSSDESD
purified human IDO protein, sequence (P14902 whole entry P110S/E119G, the tested form may be a part): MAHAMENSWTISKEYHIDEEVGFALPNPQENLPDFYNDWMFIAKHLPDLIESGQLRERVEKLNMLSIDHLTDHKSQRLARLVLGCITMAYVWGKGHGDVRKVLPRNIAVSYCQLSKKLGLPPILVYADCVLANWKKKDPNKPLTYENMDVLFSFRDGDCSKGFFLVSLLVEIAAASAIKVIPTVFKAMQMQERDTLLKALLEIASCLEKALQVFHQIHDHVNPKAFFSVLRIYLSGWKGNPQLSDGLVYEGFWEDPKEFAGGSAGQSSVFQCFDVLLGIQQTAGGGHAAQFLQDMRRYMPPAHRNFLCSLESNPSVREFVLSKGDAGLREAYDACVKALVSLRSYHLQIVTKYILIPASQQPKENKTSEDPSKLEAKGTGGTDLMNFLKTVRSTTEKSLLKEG

For `O=C(CC1c2ccccc2-c2cnnn21)C1CCCCC1` (centres unmarked) [Compound 53, 2-(8H-[1,2,3]triazolo[5,1-a]isoindol-8-yl)-1-cyclohexylethan-1-one], the concentration for half-maximal inhibition (IC50) in experiment [1] and in experiment [2] was 10 to 100 µM in each case.

In the case of `OC(CC1c2ccccc2-c2cnnn21)C1CCC(F)(F)CC1` (centres unmarked) [Compound 68, 2-(8H-[1,2,3]triazolo[5,1-a]isoindol-8-yl)-1-(4,4-difluorocyclohexyl)ethan-1-ol], the concentration for half-maximal inhibition (IC50) is 1 to 10 µM in experiment [1] and 10 to 100 µM in experiment [2].

For the molecule `c1ccc2c(c1)Cc1cn[nH]c1-2` [Compound 101], the half-inhibitory concentration (IC50) in experiment [1] is 1 to 10 µM; in experiment [2] it was more than 100 µM.

Turning to `O=C(CC1c2ccccc2-n2cncc21)C1CCCCC1` (centres unmarked) [Compound 27, 1-cyclohexyl-2-(9H-imidazo[1,5-a]indol-9-yl)ethan-1-one], the IC50 was less than 1 µM in experiment [1] and 1 to 10 µM in experiment [2].

For `O=C(CC1c2ccccc2-c2cnnn21)C1CCC(F)(F)CC1` (centres unmarked) [Compound 54, 2-(8H-[1,2,3]triazolo[5,1-a]isoindol-8-yl)-1-(4,4-difluorocyclohexyl)ethan-1-one], the IC50 in experiment [1] and in experiment [2] was more than 100 µM in each case.

The molecule `OC(CC1c2ccccc2-n2cncc21)C1CCCCC1` (centres unmarked) [Compound 70, 1-cyclohexyl-2-(9H-imidazo[1,5-a]indol-9-yl)ethan-1-ol] had an IC50 in experiment [1] of less than 1 µM.

For the molecule `O=C(CC1c2ccccc2-c2nncn21)C1CCCCC1` (centres unmarked) [Compound 43, 2-(5H-[1,2,4]triazolo[3,4-a]isoindol-5-yl)-1-cyclohexylethan-1-one], the IC50 in experiment [1] and in experiment [2] was more than 100 µM in each case.

Take `OC(CC1c2ccccc2-c2nncn21)C1CCCCC1` (centres unmarked) [Compound 69, 2-(5H-[1,2,4]triazolo[3,4-a]isoindol-5-yl)-1-cyclohexylethan-1-ol]: the IC50 in experiment [1] and in experiment [2] was more than 100 µM in each case.

Take `OC(CC1c2ccccc2-c2cnnn21)C1CCCCC1` (centres unmarked) [Compound 66, 2-(8H-[1,2,3]triazolo[5,1-a]isoindol-8-yl)-1-cyclohexylethan-1-ol]: the half-inhibitory concentration (IC50) in experiment [1] and in experiment [2] was 10 to 100 µM each time.
